Experimental data as given in publication PMC6268831 (Molecules, 2012).

How the values were obtained:
rat thymocytes [1] = experiment: Mitochondrial membrane potential of rat thymocytes (Rhodamine 123 uptake); assay type: cell-based; conditions: 24 h, ratio of mean fluorescence intensity to control, mean ± SD
Method: Experiments were performed on adult male Wistar rats (150−180 g), 8−10 weeks old, bred at the Vivarium of the Institute of Biomedical Research, Medical Faculty, Nis, Serbia, under conventional laboratory conditions and in accordance with national animal protection guidelines. Rat thymocytes were isolated as described previously. The viability of the isolated cells, as determined by trypan blue dye exclusion test, was always over 95%. Isolated thymocytes were counted and adjusted to a density of 5 × 10^6 cells/mL of CM. […] Control samples were cultured in CM, with appropriate amounts of 96% ethanol (9.6%). Concentrations of tested substances used in our study were adopted from our previous report, regarding the effect of different compounds on thymocytes toxicity. All cell cultures were done in triplicates and cultivated for 24 h in an incubator (Galaxy, Wolf Laboratories, Pocklington, UK) with 5% CO2 at 37 °C. […] The fluorescence of intracellular Rhodamine 123 (excitation 485 nm; emission 530 nm) was measured by Perkin-Elmer fluorimeter, as published earlier. For each sample, basal fluorescence intensity values were subtracted from those obtained after different treatments and results were presented as ratio of mean fluorescence intensity (MFI).

rat thymocytes [2] = experiment: Cell viability of rat thymocytes by CCK-8 assay; assay type: cell-based; conditions: 24 h, absorbance ratio to control cells, mean ± SD
Method: (§1) Experiments were performed on adult male Wistar rats (150−180 g), 8−10 weeks old, bred at the Vivarium of the Institute of Biomedical Research, Medical Faculty, Nis, Serbia, under conventional laboratory conditions and in accordance with national animal protection guidelines.
(§2) Rat thymocytes were isolated as described previously. The viability of the isolated cells, as determined by trypan blue dye exclusion test, was always over 95%. Isolated thymocytes were counted and adjusted to a density of 5 × 10^6 cells/mL of CM.
(§3) Isolated thymocytes were cultivated in 96-well round-bottom plates (NUNC, Aarhus, Denmark), containing a 100 µL of cell suspension (5 × 10^5 cells) in each well. […] Control samples were cultured in CM, with appropriate amounts of 96% ethanol (9.6%). Concentrations of tested substances used in our study were adopted from our previous report, regarding the effect of different compounds on thymocytes toxicity. All cell cultures were done in triplicates and cultivated for 24 h in an incubator (Galaxy, Wolf Laboratories, Pocklington, UK) with 5% CO2 at 37 °C.
Cell viability of rat thymocytes, after cultivation period, was evaluated by CCK-8 assay as was previously described. Ten µL of reaction mixture was added in each well. After 2 h of incubation, the solubilized formazan product was quantified spectrophotometrically, by using a microplate reader Perkin-Elmer (Wallac Victor^2V, Turku, Finland). Absorbance was measured at 450 nm. For each sample, basal intensity values were subtracted from those obtained after different treatments. Absorbances were presented as ratio for comparison with control samples.

rat thymocytes [3] = experiment: Intracellular ROS production in rat thymocytes (H2DCF-DA probe); assay type: cell-based; conditions: 24 h, ratio of mean fluorescence intensity to control, mean ± SD
Method: as §1, §2, §3
A redox-sensitive probe (H2DCF-DA) was used to determine changes in overall cellular ROS levels, as described previously. The change in fluorescence (excitation 485 nm; emission 530 nm) was measured using a Perkin-Elmer fluorimeter (Wallac Victor^2V). For each sample, basal fluorescence intensity values were subtracted from those obtained after different treatments and results were presented as ratio of mean fluorescence intensity (MFI).

[4] = tested on: human acute monocytic leukemia cell line (THP-1); conditions: tested as essential oil, lower concentrations than in this study, trypan blue viability assay; cited from earlier work

Row | SMILES | Mitochondrial membrane potential (rat thymocytes [1]; 0.5 µg/mL) | Mitochondrial membrane potential (rat thymocytes [1]; 5 µg/mL) | Mitochondrial membrane potential (rat thymocytes [1]; 50 µg/mL) | Cytotoxicity (CCK-8 assay) (rat thymocytes [2]; 0.5 µg/mL) | Cytotoxicity (CCK-8 assay) (rat thymocytes [2]; 5 µg/mL) | Cytotoxicity (CCK-8 assay) (rat thymocytes [2]; 50 µg/mL) | Intracellular ROS production (rat thymocytes [3]; 0.5 µg/mL) | Intracellular ROS production (rat thymocytes [3]; 5 µg/mL) | Intracellular ROS production (rat thymocytes [3]; 50 µg/mL) | Toxic effect on THP-1 cells [4]
1 | CC1(C)C2CCC1(C)C(O)C2 (stereo not shown) [Borneol, 4,7,7-trimethylbicyclo[2.2.1]heptan-3-ol] | 0.799 ± 0.022 | 0.856 ± 0.084 | 0.876 ± 0.110 | 1.067 ± 0.004 | 1.070 ± 0.015 | 0.975 ± 0.144 | 1.268 ± 0.102 | 1.224 ± 0.108 | 1.164 ± 0.191 | 
2 | CC12CCC(CC1=O)C2(C)C (stereo not shown) [Camphor, 4,7,7-trimethylbicyclo[2.2.1]heptan-3-one] | 0.740 ± 0.071 | 0.919 ± 0.047 | 0.925 ± 0.132 | 0.927 ± 0.132 | 1.024 ± 0.083 | 1.111 ± 0.033 | 1.413 ± 0.068 | 1.399 ± 0.093 | 1.251 ± 0.049 | no significant toxic effect
